Experiment in all cases: inhibition of tumour cell growth, NCI panel, 48 h
The subject of assay [1] is SF-268 CNS.
For assay [2], the system named is SN12C renal.
The test system of assay [3] is HOP-62 NSCLC.
In assay [4] the test system is OVCAR-8 ovarian.
The subject of assay [5] is T-47D breast.
Assay [6] has as its system K-562 leukemia.
For assay [7], the system named is HS 578T breast.

Molecules are shown by their SMILES.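 Dose response: 5 concentrations. Exposure: 48 h. Format: 96-well plates. Endpoint: linear interpolation; highest concentration if not reached. GI50: concentration for 50% inhibition of growth. TGI marks complete inhibition of growth.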

Regarding `CC[C@]12C=CCN3CC[C@@]4(c5ccc(OC)cc5N(C)[C@H]4[C@@](O)(C(=O)OC)[C@@H]1OC(=O)CCC(=O)N[C@H](Cc1c[nH]c4ccccc14)C(=O)OC)[C@@H]32`, the GI50 in assay [1] is 4.88 µM; in assay [2] it was 3.68 µM; in assay [3], 6.32 µM; in assay [4], 7.78 µM; in assay [5] it was 11 µM; in assay [6], 3.56 µM. Besides, the GI50 in assay [7] was 5.52 µM. The TGI was 25.9 µM in assay [1]; 23.9 µM in assay [2]; 24.5 µM in assay [3]; 35 µM in assay [4]; 30.3 µM in assay [5]; above 100 µM in assay [6]. In assay [7], the TGI was found to be 28.7 µM.

Consider `Cc1cc(NNC(=O)c2ccccc2O)nc(Nc2nc3ccccc3o2)n1`, for which the GI50 in assay [1] was 1.13 µM; in assay [2], 1.62 µM; in assay [3] it was 0.865 µM; in assay [4] it was 1.9 µM; in assay [5] it was 2.92 µM; in assay [6], 2.31 µM. The GI50 in assay [7] is 3.26 µM. Further, the TGI in assay [1] is 40.8 µM; in assay [2], 19.1 µM; in assay [3], 13.5 µM; in assay [4] it was 12.8 µM; in assay [5], 21.5 µM; in assay [6], above 66.2 µM. This compound had a TGI in assay [7] of 37.5 µM.

Take `C=C1CCC2C3(C)COC(c4ccc(Cl)cc4)OC3CCC2(C)C1/C=C/C1=CCOC1=O` (stereo not drawn): the GI50 was 19.9 µM in assay [1]; 7.56 µM in assay [2]; 26.8 µM in assay [3]; 4.07 µM in assay [4]; 0.821 µM in assay [5]; 11.5 µM in assay [7]. Besides, the TGI in assay [1] is above 100 µM; in assay [2] it was above 100 µM; in assay [3] it was above 100 µM; in assay [4], above 100 µM; in assay [5], 21.4 µM; in assay [6], above 100 µM. The compound also gave a TGI in assay [7] of 42.5 µM.

As to `CC1CCc2c(c(CC3CC(=O)NC(=O)C3)nn2-c2ccccc2)C1` (stereo not drawn), the TGI in assay [1], in assay [2], in assay [3], in assay [4], in assay [5] and in assay [6] was above 100 µM throughout. For the same compound, the TGI in assay [7] was above 100 µM.

Turning to `NNC(=S)Nc1cccc(Cl)c1`, the TGI in assay [1], in assay [2], in assay [3], in assay [4], in assay [5] and in assay [6] was above 100 µM in each case. Moreover, the TGI in assay [7] was above 100 µM.

As to `O=C(Cn1c(C(=O)c2ccccc2)nc2ccccc21)c1ccc(F)cc1`, the GI50 in assay [1] was 19.6 µM; in assay [2] it was above 30.7 µM; in assay [3] it was 9.44 µM; in assay [4] it was 37.4 µM; in assay [5], 3.38 µM; in assay [6], 2.86 µM. For the same compound, the GI50 in assay [7] is 11.5 µM. Moreover, the TGI in assay [1], in assay [2], in assay [3], in assay [4], in assay [5] and in assay [6] was above 100 µM throughout. In assay [7], this compound had a TGI above 100 µM.

For the compound `CC1=NN(C(=O)c2ccncc2)C(=O)C1N=Nc1ccc2ccccc2c1` (stereo not drawn), the TGI was above 100 µM in assay [1]; above 100 µM in assay [2]; above 100 µM in assay [3]; above 100 µM in assay [4]; above 100 µM in assay [5]; above 70.7 µM in assay [6]. The compound further had a TGI in assay [7] above 100 µM.

Regarding `CC(=O)O[C@H]1C(=O)[C@@]2(C)[C@H]([C@H](OC(=O)c3ccccc3)[C@@]3(O)C[C@H](O)C(C)=C1C3(C)C)[C@]1(OC(C)=O)CO[C@@H]1C[C@@H]2O`, the TGI in assay [1], in assay [2], in assay [3], in assay [4], in assay [5] and in assay [6] was above 100 µM in each case. Further, the TGI in assay [7] is 96.3 µM.

On to `COC(=O)C1=C(O)[C@H](C(=O)OC)[C@]2(O)[C@@H](C(=O)OC)[C@H]1C[C@@H](c1ccc(OC(=O)/C=C/c3ccco3)cc1)[C@@H]2C(=O)OC`, for which the GI50 in assay [1] is 40.8 µM; in assay [2] it was 22.4 µM; in assay [3], 15.7 µM; in assay [4], 42.4 µM; in assay [5], above 100 µM; in assay [6], 19.7 µM. Besides, the GI50 in assay [7] was above 100 µM. Besides, the TGI is above 100 µM in assay [1]; 52.3 µM in assay [2]; 30.5 µM in assay [3]; above 100 µM in assay [4]; above 100 µM in assay [5]; above 100 µM in assay [6]. For the same compound, in assay [7], the TGI was above 100 µM.

For the compound `COc1cc(-c2ccc(NC(=O)NC3CC3)c(OC)c2)ccc1NC(=O)NC1CC1`, the GI50 in assay [1] is 8.21 µM; in assay [2] it was 18.8 µM; in assay [3], 28.8 µM; in assay [4], 6.83 µM; in assay [5], above 100 µM; in assay [6] it was 2.45 µM. Besides, the TGI in assay [1], in assay [2], in assay [3], in assay [4], in assay [5] and in assay [6] was above 100 µM each time. For the same compound, the TGI in assay [7] was above 28.6 µM.

On to `O=C(Nc1cccnc1)c1ccc2ccc3ccc(C(=O)Nc4cccnc4)nc3c2n1`, for which the GI50 in assay [1] is 0.225 µM; in assay [2], 0.3 µM; in assay [3] it was 0.13 µM; in assay [4], 0.231 µM; in assay [5] it was 0.257 µM; in assay [6] it was 0.0526 µM. For the same compound, the GI50 in assay [7] is 0.434 µM. In addition, the TGI in assay [1], in assay [2], in assay [3], in assay [4], in assay [5] and in assay [6] was above 100 µM in each case. Further, the TGI in assay [7] is above 100 µM.

On to `CCOC(=O)c1csc(NC(=O)COc2cccc(/C=C3\CSc4ccccc4C3=O)c2)n1`, for which the GI50 was 0.204 µM in assay [1]; 1.38 µM in assay [2]; 1.33 µM in assay [3]; 1.59 µM in assay [4]; 6.79 µM in assay [5]; above 100 µM in assay [6]. Besides, the GI50 in assay [7] is 1.45 µM. Moreover, the TGI in assay [1] was 0.502 µM; in assay [2] it was 6.58 µM; in assay [3] it was 3.9 µM; in assay [4], 6.97 µM; in assay [5], 26.7 µM; in assay [6], above 100 µM. This compound also gave a TGI in assay [7] of 7.36 µM.

Source of the values: PubChem BioAssay (NCI).
